Measurements reported in patent US20030139391A1 (priority 2000, published 2003).

Tested on: Patients diagnosed with Alzheimer's Disease
Assay: Adverse events and discontinuation in 5-month slow-titration trial
Assay type: in vivo, human
Method: Subjects in the Placebo group received 21 weeks (5 months) of placebo medication.
The safety of the drug was also monitored throughout the study. Blood samples for biochemistry and haematology and random urine sample for urinalysis were taken at each visit and at completion for all efficacy testing. Systolic and diastolic blood pressure were measured in the sitting position, pulse and vital signs were recorded at each visit.

Structure (SMILES): COc1ccc2c3c1O[C@H]1C[C@@H](O)C=C[C@@]31CCN(C)C2 [GAL, galantamine]
- Serious adverse event Cardiac failure: number (16 mg/day): 3
- Serious adverse event Dehydration: % (16 mg/day): (1.1%)
- Serious adverse event Dehydration: number (16 mg/day): 3
- Serious adverse event Diarrhea: % (16 mg/day): (1.1%)
- Serious adverse event Diarrhea: number (16 mg/day): 3
- Serious adverse event Dyspnea: % (16 mg/day): (0.7%)
- Serious adverse event Dyspnea: number (16 mg/day): 2
- Serious adverse event Fall: % (16 mg/day): (0.4%)
- Serious adverse event Fall: number (16 mg/day): 1
- Serious adverse event Gi haemorrhage: % (16 mg/day): (0.0%)
- Serious adverse event Gi haemorrhage: number (16 mg/day): 0
- Serious adverse event Injury: % (16 mg/day): (0.4%)
- Serious adverse event Injury: number (16 mg/day): 1
- Serious adverse event Myocardial infarction: % (16 mg/day): (0.4%)
- Serious adverse event Myocardial infarction: number (16 mg/day): 1
- Serious adverse event Nausea: % (16 mg/day): (0.7%)
- Serious adverse event Nausea: number (16 mg/day): 2
- Serious adverse event Pneumonia: % (16 mg/day): (0.7%)
- Serious adverse event Pneumonia: number (16 mg/day): 2
- Serious adverse event Sepsis: % (16 mg/day): (0.0%)
- Serious adverse event Sepsis: number (16 mg/day): 0
- Serious adverse event Surgical intervention: % (16 mg/day): (1.1%)
- Serious adverse event Surgical intervention: number (16 mg/day): 3
- Serious adverse event Syncope: % (16 mg/day): (1.4%)
- Serious adverse event Syncope: number (16 mg/day): 4
- Serious adverse event Thrombophlebitis deep: % (16 mg/day): (0.0%)
- Serious adverse event Thrombophlebitis deep: number (16 mg/day): 0
- Serious adverse event Transient ischemic attack: % (16 mg/day): (0.7%)
- Serious adverse event Transient ischemic attack: number (16 mg/day): 2
- Serious adverse event Urinary tracq infection: % (16 mg/day): (0.7%)
- Serious adverse event Urinary tracq infection: number (16 mg/day): 2
- Serious adverse event Vomiting: % (16 mg/day): (0.7%)
- Serious adverse event Vomiting: number (16 mg/day): 2
- Syncope: % of patients (16 mg/day): (1.8%)
- Syncope: number of patients (16 mg/day): 5
- Total discontinued (DC): % (16 mg/day): 22%
- Total discontinued (DC): N (16 mg/day): 60
- Total patients with any SAE: % (16 mg/day): (10.0%)
- Total patients with any SAE: number (16 mg/day): 28
- Urinary tract infection: % of patients (16 mg/day): (8.2%)
- Urinary tract infection: number of patients (16 mg/day): 23
- Vomiting: % of patients (16 mg/day): (6.1%)
- Vomiting: number of patients (16 mg/day): 17
- Weight decrease: % of patients (16 mg/day): (5.4%)
- Weight decrease: number of patients (16 mg/day): 15
- Agitation: % of patients (24 mg/day): (8.1%)
- Agitation: number of patients (24 mg/day): 22
- Anorexia: % of patients (24 mg/day): (8.8%)
- Anorexia: number of patients (24 mg/day): 24
- Bradycardia: % of patients (24 mg/day): (2.9%)
- Bradycardia: number of patients (24 mg/day): 8
- Convulsions: % of patients (24 mg/day): (0.4%)
- Convulsions: number of patients (24 mg/day): 1
- DC due to adverse event: % (24 mg/day): 10%
- DC due to adverse event: N (24 mg/day): 27
- DC due to inefficacy: % (24 mg/day): 1%
- DC due to inefficacy: N (24 mg/day): 2
- Depression: % of patients (24 mg/day): (8.%)
- Depression: number of patients (24 mg/day): 22
- Diarrhea: % of patients (24 mg/day): (5.5%)
- Diarrhea: number of patients (24 mg/day): 15
- Dizziness: % of patients (24 mg/day): (7.0%)
- Dizziness: number of patients (24 mg/day): 19
- Dyspepsia: % of patients (24 mg/day): (5.5%)
- Dyspepsia: number of patients (24 mg/day): 15
- Edema peripheral: % of patients (24 mg/day): (2.6%)
- Edema peripheral: number of patients (24 mg/day): 7
- Fall: % of patients (24 mg/day): (4.4%)
- Fall: number of patients (24 mg/day): 12
- Fatigue: % of patients (24 mg/day): (4.8%)
- Fatigue: number of patients (24 mg/day): 13
- Headache: % of patients (24 mg/day): (4.8%)
- Headache: number of patients (24 mg/day): 13
- Injury: % of patients (24 mg/day): (5.9%)
- Injury: number of patients (24 mg/day): 16
- Muscle weakness: % of patients (24 mg/day): (0.4%)
- Muscle weakness: number of patients (24 mg/day): 1
- Nausea: % of patients (24 mg/day): (16.5%)
- Nausea: number of patients (24 mg/day): 45
- Rhinitis: % of patients (24 mg/day): (4.0%)
- Rhinitis: number of patients (24 mg/day): 11
- Serious adverse event Abdominal pain: % (24 mg/day): (0.0%)
- Serious adverse event Abdominal pain: number (24 mg/day): 0
- Serious adverse event Agitation: % (24 mg/day): (0.0%)
- Serious adverse event Agitation: number (24 mg/day): 0
- Serious adverse event Asthenia: % (24 mg/day): (0.4%)
- Serious adverse event Asthenia: number (24 mg/day): 1
- Serious adverse event Basal cell carcinoma: % (24 mg/day): (0.7%)
- Serious adverse event Basal cell carcinoma: number (24 mg/day): 2
- Serious adverse event Breast neoplasm female: % (24 mg/day): (0.0%)
- Serious adverse event Breast neoplasm female: number (24 mg/day): 0
- Serious adverse event Cardiac failure: % (24 mg/day): (0.0%)
- Serious adverse event Cardiac failure: number (24 mg/day): 0
- Serious adverse event Dehydration: % (24 mg/day): (0.0%)
- Serious adverse event Dehydration: number (24 mg/day): 0
- Serious adverse event Diarrhea: % (24 mg/day): (0.0%)
- Serious adverse event Diarrhea: number (24 mg/day): 0
- Serious adverse event Dyspnea: % (24 mg/day): (1.1%)
- Serious adverse event Dyspnea: number (24 mg/day): 3.
- Serious adverse event Fall: % (24 mg/day): (1.1%)
- Serious adverse event Fall: number (24 mg/day): 3
- Serious adverse event Gi haemorrhage: % (24 mg/day): (0.7%)
- Serious adverse event Gi haemorrhage: number (24 mg/day): 2
- Serious adverse event Injury: % (24 mg/day): (1.8%)
- Serious adverse event Injury: number (24 mg/day): 5
- Serious adverse event Myocardial infarction: % (24 mg/day): (0.4%)
- Serious adverse event Myocardial infarction: number (24 mg/day): 1
- Serious adverse event Nausea: % (24 mg/day): (0.0%)
- Serious adverse event Nausea: number (24 mg/day): 0
- Serious adverse event Pneumonia: % (24 mg/day): (1.1%)
- Serious adverse event Pneumonia: number (24 mg/day): 3
- Serious adverse event Sepsis: % (24 mg/day): (0.0%)
- Serious adverse event Sepsis: number (24 mg/day): 0
- Serious adverse event Surgical intervention: % (24 mg/day): (0.0%)
- Serious adverse event Surgical intervention: number (24 mg/day): 0
- Serious adverse event Syncope: % (24 mg/day): (1.8%)
- Serious adverse event Syncope: number (24 mg/day): 5
- Serious adverse event Thrombophlebitis deep: % (24 mg/day): (0.7%)
- Serious adverse event Thrombophlebitis deep: number (24 mg/day): 2
- Serious adverse event Transient ischemic attack: % (24 mg/day): (0.0%)
- Serious adverse event Transient ischemic attack: number (24 mg/day): 0
- Serious adverse event Urinary tracq infection: % (24 mg/day): (0.0%)
- Serious adverse event Urinary tracq infection: number (24 mg/day): 0
- Serious adverse event Vomiting: % (24 mg/day): (0.4%)
- Serious adverse event Vomiting: number (24 mg/day): 1
- Syncope: % of patients (24 mg/day): (3.3%)
- Syncope: number of patients (24 mg/day): 9
- Total discontinued (DC): % (24 mg/day): 22%
- Total discontinued (DC): N (24 mg/day): 61
- Total patients with any SAE: % (24 mg/day): (12.8%)
- Total patients with any SAE: number (24 mg/day): 35
- Urinary tract infection: % of patients (24 mg/day): (8.1%)
- Urinary tract infection: number of patients (24 mg/day): 22
- Vomiting: % of patients (24 mg/day): (9.9%)
- Vomiting: number of patients (24 mg/day): 27
- Weight decrease: % of patients (24 mg/day): (4.8%)
- Weight decrease: number of patients (24 mg/day): 13
